The text below walks through data of patent US12344596B2, “Solid forms of (S)-1-((2′,6-bis(difluoromethyl)-[2,4′-bipyridin]-5-yl)oxy)-2,4-dimethylpentan-2-amine and salts thereof” (Lexicon Pharmaceuticals, Inc., priority 2022, dated 2025).

The structures appear in SMILES notation.

A short description of series [1]: storage stability at 40° C. and 75% relative humidity. In kind it is physicochemical. The following applies: stored at 40° C. and 75% relative humidity for up to four weeks. The procedure:
Instead, the melting of Form I is observed to recrystallize to another, metastable form having a melting point of about 172.5° C.

Series [2] is described as follows: water solubility at 25° C. The following applies: aqueous. Type of series: physicochemical.

Take `CC(C)C[C@](C)(N)COc1ccc(-c2ccnc(C(F)F)c2)nc1C(F)F` [Compound K, ((S)-1-((2′,6-bis(difluoromethyl)-[2,4′-bipyridin]-5-yl)oxy)-2,4-dimethylpentan-2-aminiumdihydrogen phosphate]: in series [1], the “stability of form, morphology and purity on storage” value was “neither the form itself, its morphology, nor its purity changed”.
Take `CC(C)C[C@](C)(N)COc1ccc(-c2ccnc(C(F)F)c2)nc1C(F)F.Cl` [Compound S, (S)-1-((2′,6-bis(difluoromethyl)-[2,4′-bipyridin]-5-yl)oxy)-2,4-dimethylpentan-2-amine hydrochloride]: the solubility (usually the dissolved amount per volume that the medium holds) in series [2] turned out to be 2900 µg/mL.
